Laboratory results reported in patent US20160166608A1, “METHODS OF TREATING CANCER WITH HIGH POTENCY LIPID-BASED PLATINUM COMPOUND FORMULATIONS ADMINISTERED INTRAPERITONEALLY” (Insmed Incorporated, priority 2005, published 2016).

System: L1210 cells
Experiment: Survival of DBA/2 mice with L1210 cells after a single ip bolus (Example 15)
Format: in vivo, mouse
Details: 6 mg/kg single ip bolus on day 5; L1210, DBA/2 mice
Protocol: DPPC (3.0 g) and cholesterol (1.2 g) were co-dissolved in 20 mL of ethanol. • 2.
The mice were given equivalent amounts of cisplatin containing therapeutics based on the amount of lipid instead of the amount of cisplatin.
Female DBA/2 mice (Charles Rivers) were used. Thirty (30) mice were injected with 2×10^6 L1210 cells ip on Day 0. On day 1, the mice were weighed and randomized into 3 groups of 10 mice. […] Survival was monitored. Mice were weighed daily after day 10. Mice that lost 20% or greater of their starting weight were euthanized by CO2 inhalation. The date of their death was recorded on data sheets. Median survival was calculated by Prism GraphPad.

N.N.[Cl][Pt][Cl] [cisplatin, cis-diamine-dichloroplatinum (II)]
days of median survival: 19.5 days
